Measured values: patent US12012411B2, “Viral replication inhibitors” (Katholieke Universiteit Leuven, priority 2011, dated 2024)
pEC50: −log10 of the molar value.

How the values were obtained:
[1] = system: DENV-4 strain Dak HD 34 460; assay: Antiviral activity against DENV-4 in Vero-B cells (viral RNA load by RT-qPCR); type: cell-based, Dengue virus; details: Dengue virus, DENV4, Vero B
[2] = system: DENV-3 strain H87 prototype; assay: Antiviral activity against DENV-3 in Vero-B cells (viral RNA load by RT-qPCR); type: cell-based, Dengue virus; details: Dengue virus, DENV3, Vero B
YFV-17D = assay: microbe, parasite or virus in culture; type: cell-based; details: Yellow fever virus, Vero B
[3] = system: DENV-1 Djibouti strain D1/H/IMTSSA/98/606; assay: Antiviral activity against DENV-1 in Vero-B cells (viral RNA load by RT-qPCR); type: cell-based, Dengue virus; details: Dengue virus, DENV1, Vero B
in vitro = details: African green monkey; for CC50 at 4 days: uninfected quiescent Vero-B cells
DENV-2 NGC [4] = assay: Antiviral activity against DENV-2 NGC in Vero-B cells (viral RNA load by RT-qPCR); type: cell-based, Dengue virus; details: Dengue virus, DENV2, Vero B, DENV-2 in Vero-B cells; inhibition of viral RNA replication by 50% (Table 3)
[5] = system: uninfected quiescent Vero-B cells; assay: Cytotoxic assay in uninfected quiescent Vero-B cells (MTS/PMS); details: 4 days (Table 3)
DENV-2 NGC [6] = assay: Antiviral activity against DENV-2 NGC in A549 cells (viral RNA load by RT-qPCR); type: cell-based; details: Dengue virus, DENV2; DENV-2 in A549 cells (Table 6)
[7] = Cytotoxicity in A549 cells (MTS/PMS); type: cell-based; details: human; A549 cells (Table 6)
Protocol: A similar protocol was used to assess cytotoxicity in A549 cells with the difference that cells were seeded at 2×10^4 cells/well.

DENV-2 strain D2Y98P = assay: Dengue mortality model in AG129 mice; type: in vivo; details: 60 mg/kg/day, sc, twice daily, 17 consecutive days; DENV-2 D2Y98P infected AG129 mice; p: 0.0017; FIG. 1

SMILES	pEC50 [1]	pEC50 [2]	pEC50 (YFV-17D)	pEC50 [3]	CC50 (in vitro) [nM]	pEC50 (DENV-2 NGC [4])	CC50 [5] [nM]	pEC50 (DENV-2 NGC [6])	CC50 at 4 days [7] [nM]	CC50 at 4 days (in vitro) [nM]	delay in virus-induced morbidity (day of euthanasia) (DENV-2 strain D2Y98P)
COc1ccc(NC(C(=O)c2c[nH]c3ccccc23)c2ccccc2)cc1OC (stereo not shown) [CPD-001]	5.35	4.53	5.04	5.80	43000	7.10	29000				
COc1cc(NC(C(=O)c2c[nH]c3ccccc23)c2ccccc2)cc(OC)c1 (stereo not shown) [CPD-002]	4.57	> 6.30	5.55	6.27	25000	8.00	16000				
COc1cccc(NC(C(=O)c2c[nH]c3ccccc23)c2ccccc2)c1 (stereo not shown) [CPD-010]	5.27	5.45	> 6.22	5.89	12000	7.15	18000	7.18	16000		
COc1cc(NC(C(=O)c2c(C)[nH]c3ccccc23)c2ccccc2)cc(OC)c1 (stereo not shown) [CPD-012]		> 6.30	> 6.30	5.35	12000	7.30				14000	
COc1cc(NC(C(=O)c2c[nH]c3cc(Cl)ccc23)c2ccccc2)cc(OC)c1 (stereo not shown) [CPD-013]	5.74	> 6.30	6.28	7.05	11000	8.70				9000	
COc1cccc(NC(C(=O)c2c[nH]c3ccccc23)c2cccnc2)c1 (stereo not shown) [CPD-019]	5.08	5.66	5.21	6.17	56000	6.85	71000				
COc1cccc(NC(C(=O)c2c[nH]c3ccccc23)c2ccc(C#N)cc2)c1 (stereo not shown) [CPD-036]	5.23	5.47		5.61		7.40	14000				
COc1cccc(NC(C(=O)c2c[nH]c3cccc(Cl)c23)c2ccccc2)c1 (stereo not shown) [CPD-053]	5.15	4.95		5.79		7.70	18000				
COc1cccc(NC(C(=O)c2c[nH]c3cc(OC)ccc23)c2ccccc2)c1 (stereo not shown) [CPD-077]	5.37	5.68		5.85		7.40	13000				
COc1cccc(NC(C(=O)c2c[nH]c3ccccc23)c2cc3ccccn3n2)c1 (stereo not shown) [CPD-083]	5.60	6.15		6.27		7.52	26000				
COc1cccc(NC(C(=O)c2c[nH]c3ccc(F)cc23)c2ccccc2)c1 (stereo not shown) [CPD-119]	5.54	5.76		6.16		7.52	13000				
COc1cccc(NC(C(=O)c2c[nH]c3cc(F)ccc23)c2ccccc2)c1 (stereo not shown) [CPD-123]	5.58	5.59		5.80		7.30	15000				
COc1cc(NC(C(=O)c2c[nH]c3ccc(F)cc23)c2ccccc2)cc(OC)c1 (stereo not shown) [CPD-131]	5.32	6.17		6.60		8.00	13000	8.10	11000		
COc1cccc(NC(C(=O)c2c[nH]c3ccccc23)c2ccc(C)cc2)c1 (stereo not shown) [CPD-139]	5.42	6.34		6.19		7.70	20000				
COc1cccc(NC(C(=O)c2c[nH]c3ccccc23)c2ccc(F)cc2)c1 (stereo not shown) [CPD-149]	5.24	5.40		5.54		7.52	14000				
COc1cccc(NC(C(=O)c2csc3ccccc23)c2ccccc2)c1 (stereo not shown) [CPD-193]	5.26	4.72	> 6.30	4.63	> 133000	6.14				> 133000	
COc1cccc(NC(C(=O)c2c[nH]c3ccccc23)c2ccc(C)nc2)c1 (stereo not shown) [CPD-226]	5.06	6.09		6.04		7.15	73000				
COc1cccc(NC(C(=O)c2c[nH]c3cccc(F)c23)c2ccccc2)c1 (stereo not shown) [CPD-230]	5.59	5.45		6.46		6.92	21000				

SMILES	pEC50 [1]	pEC50 [2]	pEC50 (YFV-17D)	pEC50 [3]	CC50 (in vitro) [nM]	pEC50 (DENV-2 NGC [4])	CC50 [5] [nM]	pEC50 (DENV-2 NGC [6])	CC50 at 4 days [7] [nM]	CC50 at 4 days (in vitro) [nM]	delay in virus-induced morbidity (day of euthanasia) (DENV-2 strain D2Y98P)
COc1cc(NC(C(=O)c2c[nH]c3ccccc23)c2ccc(F)cc2)cc(OC)c1 (stereo not shown) [CPD-235]	5.52	6.57		7.05		8.40	13000				
COc1cc(NC(C(=O)c2c[nH]c3ccccc23)c2cccnc2)cc(OC)c1 (stereo not shown) [CPD-236]	5.61	6.51		6.77		7.70	69000	7.72	65000		
COc1cncc(NC(C(=O)c2c[nH]c3cc(F)ccc23)c2ccc(OC)nc2)c1 (stereo not shown) [CPD-242]	5.10	6.24		6.40		7.40		8.00	47000	59000	highly significant delay
CCOc1cc(NC(C(=O)c2c[nH]c3ccccc23)c2ccccc2)cc(OC)c1 (stereo not shown) [CPD-254]	5.94	6.10		6.17		7.70	13000				
COc1cc(NC(C(=O)c2c[nH]c3ccccc23)c2ccccc2)cc(OCCO)c1 (stereo not shown) [CPD-255]	5.47	5.78		6.12		7.40		7.54	59000	63000	
COc1cc(CO)cc(NC(C(=O)c2c[nH]c3ccccc23)c2ccccc2)c1 (stereo not shown) [CPD-262]	5.07	5.17		5.63		7.22	71000				
COc1cc(NC(C(=O)c2c[nH]c3ccccc23)c2cc3ccccn3n2)cc(OC)c1 (stereo not shown) [CPD-293]	5.94	7.40		7.22		9.00		8.52	> 117000	65000	
COc1cc(NC(C(=O)c2c[nH]c3ccccc23)c2cnc(OC)cn2)cc(OC)c1 (stereo not shown) [CPD-294]	5.14	6.17		6.64		7.70		7.82	61000	41000	
COc1cc(CO)cc(NC(C(=O)c2c[nH]c3ccccc23)c2ccc(C)nc2)c1 (stereo not shown) [CPD-320]	5.03	5.93		6.02		7.15		8.22	> 124000	> 124000	
COc1cccc(NC(C(=O)c2c[nH]c3ccccc23)c2nc3ccccc3o2)c1 (stereo not shown) [CPD-328]	5.55	6.89		6.70		8.00	13000	8.22	12000		
COc1cc(CO)cc(NC(C(=O)c2c[nH]c3ccc(F)cc23)c2cccnc2)c1 (stereo not shown) [CPD-334]	4.78	6.09		5.89		7.15		7.62	85000	122000	
COc1cc(NC(C(=O)c2c[nH]c3ccccc23)c2cc3ccccn3n2)cc(OCCO)c1 (stereo not shown) [CPD-336]	5.24	6.46		6.59		8.00		8.30	> 123000	> 123000	
COc1cc(NC(C(=O)c2cn(C)c3ccccc23)c2ccccc2)cc(OC)c1 (stereo not shown) [CPD-338]	5.74	6.60		6.46		8.00		7.59	> 124000	> 124000	
COc1cc(NC(C(=O)c2nn(C)c3ccccc23)c2ccc(F)cc2)cc(OC)c1 (stereo not shown) [CPD-340]	5.19	6.62		6.74		7.70		7.57	> 119000	> 119000	
COc1cc(NC(C(=O)c2c[nH]c3ccccc23)c2ccc(C)nc2)cc(OC)c1 (stereo not shown) [CPD-346]	5.90	7.40				8.00		8.10	60000	54000	
COc1cc(NC(C(=O)c2c[nH]c3ccccc23)c2ccc(F)cc2)cc(OCCO)c1 (stereo not shown) [CPD-350]	5.51	6.55				8.00	46000	8.10	63000		
COc1cc(NC(C(=O)c2cn(C)c3ccccc23)c2cccnc2)cc(OC)c1 (stereo not shown) [CPD-360]	5.24					7.40		7.57	> 124000	> 124000	
